According to PMC5607274, “An iterative compound screening contest method for identifying target protein inhibitors using the tyrosine-protein kinase Yes” (Scientific Reports, 2017):

The molecules below were run against T1, human recombinant Yes [a.a. 2–543 (end)] (Homo sapiens, UniProt P07947) (assay: ADP-Glo kinase assay, inhibition rates of Yes phosphorylation activity (first and second screening)). Conditions: first screening; mean of n = 4 wells; 10 μmol L−1 compound.
T1 construct: human recombinant Yes [a.a; 2–543 (end)]; purchased BPS Bioscience 40488
Assay type: biochemical
How it was run: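 ADP-Glo luminescence measured inhibition of human recombinant Yes (a.a. 2–543) phosphorylation activity. In the first screen, each compound ran in 4 wells and inhibition rates were averaged. The second screen retested hits as compounds dissolved from fresh powder.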

T1 sequence (P07947 2-543): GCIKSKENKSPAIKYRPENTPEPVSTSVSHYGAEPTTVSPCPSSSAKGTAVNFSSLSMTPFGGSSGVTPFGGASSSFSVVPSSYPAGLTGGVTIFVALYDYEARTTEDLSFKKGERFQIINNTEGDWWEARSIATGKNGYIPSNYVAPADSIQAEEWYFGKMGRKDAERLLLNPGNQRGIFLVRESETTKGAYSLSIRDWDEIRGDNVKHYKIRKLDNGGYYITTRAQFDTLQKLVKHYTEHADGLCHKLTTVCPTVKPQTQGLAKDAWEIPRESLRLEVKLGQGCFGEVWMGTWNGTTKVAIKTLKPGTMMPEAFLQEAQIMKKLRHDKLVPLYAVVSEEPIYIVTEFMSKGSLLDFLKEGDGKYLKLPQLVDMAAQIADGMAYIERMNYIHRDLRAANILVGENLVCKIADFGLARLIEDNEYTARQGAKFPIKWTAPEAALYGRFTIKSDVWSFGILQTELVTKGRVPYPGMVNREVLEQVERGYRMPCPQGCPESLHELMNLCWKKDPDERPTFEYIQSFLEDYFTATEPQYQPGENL

Question: `N#Cc1c(NC(=O)COC(=O)c2cn(-c3ccccc3)nc2-c2cccnc2)oc(-c2ccccc2)c1-c1ccccc1` [Compound Z56941227] was tested. Which “First screening IR (inhibition rate)” value did it give?
Answer: -9%

Question: How did the “First screening IR (inhibition rate)” value turn out when `COc1ccc(CCNC(=O)Cn2c(CN3CCOCC3)nc3sc4c(c3c2=O)CCC(C)C4)cc1` (centres unmarked) [Compound Z56952971] was run?
Answer: -10%

Question: For `Cc1ccc(N(C(=O)c2ccc(C(C)(C)C)cc2)C2C=CS(=O)(=O)C2)cc1` (centres unmarked) [Compound Z56970107], which “First screening IR (inhibition rate)” value is on record?
Answer: 4%

Question: How did the “First screening IR (inhibition rate)” value turn out when `O=S(=O)(Cl)c1ccc(S(=O)(=O)N2CCCC2)cc1` [Compound Z56979291] was run?
Answer: 9%

Question: With `CCOc1ccc(-c2nc3ccccc3c(-c3ccccc3)c2Cl)cc1.Cl` [Compound Z57038735] as the molecule, how does the “First screening IR (inhibition rate)” value read?
Answer: 51%

Question: For `Cc1cc(C)c(NC(=O)C2CCN(c3ncnc4sc(C)c(C)c34)CC2)c(C)c1` [Compound Z57042877], which “First screening IR (inhibition rate)” value is on record?
Answer: 0%

Question: `COc1ccc(Nc2nc(NCCN3CCOCC3)nc(Nc3ccc(OC)cc3)n2)cc1` [Compound Z57049315] was tested. Which “First screening IR (inhibition rate)” value did it give?
Answer: 6%

Question: `O=S1(=O)C=C(Cl)C(Br)C1` (centres unmarked) [Compound Z57056476] was tested. Which “First screening IR (inhibition rate)” value did it give?
Answer: 1%

Question: `O=S1(=O)CCC(SSC2CCS(=O)(=O)C2)C1` (centres unmarked) [Compound Z57056477] was tested. Which “First screening IR (inhibition rate)” value did it give?
Answer: 3%

Question: Which “First screening IR (inhibition rate)” value does the source give for `O=S1(=O)CCC(S(=O)(=O)c2ccccc2)C1` (centres unmarked) [Compound Z57056479] here?
Answer: 4%

Question: `O=S1(=O)CCC(S(=O)(=O)Cl)C1` (centres unmarked) [Compound Z57163399] was tested. Which “First screening IR (inhibition rate)” value did it give?
Answer: -7%

Question: How did the “First screening IR (inhibition rate)” value turn out when `O=S1(=O)CC=C(S(=O)(=O)Cl)C1` [Compound Z57163400] was run?
Answer: 4%

Question: Which “First screening IR (inhibition rate)” value does the source give for `Cc1ccc(C(=O)CC2(O)C(=O)Nc3ccc(Cl)cc32)cc1` (centres unmarked) [Compound Z57172226] here?
Answer: 2%

Question: Which “First screening IR (inhibition rate)” value does the source give for `O=c1c2cccc3c2c(nn1-c1ccccc1)-c1ccccc1-3` [Compound Z57229152] here?
Answer: 18%

Question: `O=C(C1=C(O)C(=O)N(CCCn2ccnc2)C1c1ccc(Cl)cc1)c1ccco1` (centres unmarked) [Compound Z57237929] was tested. Which “First screening IR (inhibition rate)” value did it give?
Answer: 20%

Question: With `O=C(C1=C(O)C(=O)N(CCCn2ccnc2)C1c1cccc([N+](=O)[O-])c1)c1ccco1` (centres unmarked) [Compound Z57237939] as the molecule, how does the “First screening IR (inhibition rate)” value read?
Answer: 62%

Question: How did the “First screening IR (inhibition rate)” value turn out when `COCCNC(=O)/C(=C\c1ccc(-c2cccc(Cl)c2)o1)NC(=O)c1ccc(OC)cc1` [Compound Z57239420] was run?
Answer: 46%

Question: Which “First screening IR (inhibition rate)” value does the source give for `O=C(NCCCn1ccnc1)/C(=C/c1ccc(-c2cccc(Cl)c2)o1)NC(=O)c1ccccc1` [Compound Z57239426] here?
Answer: 2%

Question: With `O=C1C(=O)N(CCCn2ccnc2)C(c2ccc(F)cc2)/C1=C(\O)c1ccc(Cl)cc1` (centres unmarked) [Compound Z57239976] as the molecule, how does the “First screening IR (inhibition rate)” value read?
Answer: -5%

Question: `Cc1ccnc(Nc2nc3ccccc3s2)n1` [Compound Z57289339] was tested. Which “First screening IR (inhibition rate)” value did it give?
Answer: -13%

Question: For `O=S(=O)(Nc1cccc(-c2cn3ccccc3n2)c1)c1ccccc1` [Compound Z57289575], which “First screening IR (inhibition rate)” value is on record?
Answer: 41%

Question: How did the “First screening IR (inhibition rate)” value turn out when `O=C(N/N=C/c1ccco1)c1cc(-c2ccc(Br)s2)[nH]n1` [Compound Z57393573] was run?
Answer: -9%

Question: With `Clc1ccc2nc(NC3=NCN(CCN4CCOCC4)CN3)nc(-c3ccccc3)c2c1` [Compound Z57440306] as the molecule, how does the “First screening IR (inhibition rate)” value read?
Answer: 4%

Question: With `Fc1ccc(-n2cc(-c3ccccc3)c3c(N4CCOCC4)ncnc32)cc1` [Compound Z57455467] as the molecule, how does the “First screening IR (inhibition rate)” value read?
Answer: 5%

Question: With `COc1ccc(-n2cc(-c3ccccc3)c3c(NCCCO)ncnc32)cc1` [Compound Z57455872] as the molecule, how does the “First screening IR (inhibition rate)” value read?
Answer: 1%

Question: `COCCNc1ncnc2c1c(-c1ccccc1)cn2-c1ccc(OC)cc1` [Compound Z57455912] was tested. Which “First screening IR (inhibition rate)” value did it give?
Answer: 16%

Question: For `OCCNc1ncnc2c1c(-c1ccccc1)cn2-c1ccc(F)cc1` [Compound Z57455953], which “First screening IR (inhibition rate)” value is on record?
Answer: -6%

Question: With `COc1ccc(-n2cc(-c3ccccc3)c3c(NCCOCCO)ncnc32)cc1` [Compound Z57456127] as the molecule, how does the “First screening IR (inhibition rate)” value read?
Answer: -8%

Question: How did the “First screening IR (inhibition rate)” value turn out when `CCOc1ccc(-n2cc(-c3ccccc3)c3c(NCCO)ncnc32)cc1` [Compound Z57456164] was run?
Answer: 20%

Question: How did the “First screening IR (inhibition rate)” value turn out when `Cc1ccc(Cn2ncc3c(NN)ncnc32)cc1` [Compound Z57458515] was run?
Answer: 9%

Question: How did the “First screening IR (inhibition rate)” value turn out when `CCS(=O)(=O)Nc1ccc(C2=NN(S(=O)(=O)c3ccc(C)cc3)C(c3ccco3)C2)cc1` (centres unmarked) [Compound Z57514609] was run?
Answer: 23%

Question: How did the “First screening IR (inhibition rate)” value turn out when `Oc1ccc(F)cc1C1=NNC(c2cc(Br)cc3c2OCOC3)C1` (centres unmarked) [Compound Z57604399] was run?
Answer: -12%

Question: Which “First screening IR (inhibition rate)” value does the source give for `Cc1cc(=O)n2c3ccccc3n(CC(O)CN3CCN(CCOc4ccc(Cl)cc4)CC3)c2c1C#N` (centres unmarked) [Compound Z57724322] here?
Answer: 7%

Question: `O=C(COc1ccc(-c2cc(-c3ccccc3)c3cc(Cl)ccc3n2)cc1)NCCO` [Compound Z57805545] was tested. Which “First screening IR (inhibition rate)” value did it give?
Answer: 39%

Question: How did the “First screening IR (inhibition rate)” value turn out when `OCCNc1nc2ccccc2n1-c1ncnc2sc3c(c12)CCCC3` [Compound Z57981090] was run?
Answer: 7%

Question: `Clc1ccc(Oc2cccc(-c3nc4c5ccccc5c5ccccc5c4[nH]3)c2)cc1` [Compound Z57984419] was tested. Which “First screening IR (inhibition rate)” value did it give?
Answer: 2%

Question: Which “First screening IR (inhibition rate)” value does the source give for `Cl.N#Cc1c(-c2ccc(Cl)cc2)nc2ccccc2c1-c1ccccc1` [Compound Z57989376] here?
Answer: 2%

Question: Which “First screening IR (inhibition rate)” value does the source give for `NNc1ncnc2c1cnn2Cc1ccccc1` [Compound Z58286928] here?
Answer: -12%

Question: How did the “First screening IR (inhibition rate)” value turn out when `C(=C\c1ccccc1)/CN1CCN(c2ncnc3c2cnn3Cc2ccccc2)CC1` [Compound Z58287009] was run?
Answer: 0%

Question: How did the “First screening IR (inhibition rate)” value turn out when `Cc1cccnc1NC(=O)c1ccc(CSc2ccccc2)cc1` [Compound Z58490632] was run?
Answer: -1%

Question: With `Cc1nn(C2CCS(=O)(=O)C2)c2nc(C3CC3)cc(C(=O)NCc3ccc4c(c3)OCO4)c12` (centres unmarked) [Compound Z60362928] as the molecule, how does the “First screening IR (inhibition rate)” value read?
Answer: 5%

Question: Which “First screening IR (inhibition rate)” value does the source give for `Cc1nn(C2CCS(=O)(=O)C2)c2nc(C3CC3)cc(C(=O)Nc3ccc(C(N)=O)cc3)c12` (centres unmarked) [Compound Z60779201] here?
Answer: 17%

Question: For `COc1cc(NC(=O)c2ccccc2)c(OC)cc1NC(=O)COc1ccc(-c2nnco2)cc1` [Compound Z62746884], which “First screening IR (inhibition rate)” value is on record?
Answer: 46%

Question: Which “First screening IR (inhibition rate)” value does the source give for `CN(CC(=O)NCc1ccco1)C(=O)/C=C/c1ccc(-n2ccnc2)cc1` [Compound Z62804747] here?
Answer: 2%

Question: Which “First screening IR (inhibition rate)” value does the source give for `CN(CC(=O)N1CCN(CC(=O)NC(C)(C)C)CC1)c1ncnc2cc(-c3ccc(F)cc3)sc12` [Compound Z64655268] here?
Answer: 6%

Question: How did the “First screening IR (inhibition rate)” value turn out when `CCN(c1ccc(-c2csc(Nc3ccc(OC)cc3)n2)cc1)S(C)(=O)=O` [Compound Z64779311] was run?
Answer: -4%

Question: Which “First screening IR (inhibition rate)” value does the source give for `Cn1cc(/C=N/Nc2ccnc3cc(Cl)ccc23)cn1` [Compound Z65478686] here?
Answer: 2%

Question: Which “First screening IR (inhibition rate)” value does the source give for `CCc1ccc(S(=O)(=O)N(CC)C2CCS(=O)(=O)C2)cc1` (centres unmarked) [Compound Z65566827] here?
Answer: 2%

Question: `CC(c1ccc(S(N)(=O)=O)cc1)N(C)S(=O)(=O)c1cc(Cl)cc(Cl)c1` (centres unmarked) [Compound Z65599853] was tested. Which “First screening IR (inhibition rate)” value did it give?
Answer: 0%

Question: With `CC(C)(C)NC(=O)CN1CCN(C(=O)CSc2nc3ccccc3c(=O)n2-c2ccccc2)CC1` [Compound Z65695011] as the molecule, how does the “First screening IR (inhibition rate)” value read?
Answer: 57%

Question: With `Cn1c(SCC(=O)N2c3ccccc3OCC2c2ccccc2)nnc1-c1ccncc1` (centres unmarked) [Compound Z65769442] as the molecule, how does the “First screening IR (inhibition rate)” value read?
Answer: -1%

Question: For `COc1ccc(-c2nnc(SCC(=O)N3c4ccccc4OCC3c3ccccc3)n2C)cc1` (centres unmarked) [Compound Z65980497], which “First screening IR (inhibition rate)” value is on record?
Answer: -3%

Question: For `O=C(Nc1nc2c(s1)CN(Cc1ccccc1)CC2)c1cc2c(nc3sccn32)s1` [Compound Z68435865], which “First screening IR (inhibition rate)” value is on record?
Answer: -4%

Question: How did the “First screening IR (inhibition rate)” value turn out when `COc1ccc(-c2cc(NC(=O)C3CCC(=O)N3)ccc2OC(F)F)cc1` (centres unmarked) [Compound Z70775126] was run?
Answer: -6%

Question: With `Cc1ccc(S(=O)(=O)N(C)c2ccc(OCC(=O)Nc3ccc4oc(C)nc4c3)cc2)cc1` [Compound Z70909087] as the molecule, how does the “First screening IR (inhibition rate)” value read?
Answer: 17%

Question: `CCCOc1ccc(OCC(=O)Nc2ccc3oc(C)nc3c2)cc1` [Compound Z70909650] was tested. Which “First screening IR (inhibition rate)” value did it give?
Answer: 11%

Question: Which “First screening IR (inhibition rate)” value does the source give for `CCN(CC)c1ccc([N+](=O)[O-])cc1C(=O)Nc1ccc2nc(N3CCOCC3)sc2c1` [Compound Z70970124] here?
Answer: 9%

Question: `COc1ccc(CCN2CC(C(=O)Nc3c(-c4ccccc4)nc4ccc(C)cn34)CC2=O)cc1OC` (centres unmarked) [Compound Z70997275] was tested. Which “First screening IR (inhibition rate)” value did it give?
Answer: -15%

Question: For `Cc1cc(C)c(C)c(S(=O)(=O)N(C)C2CCS(=O)(=O)C2)c1C` (centres unmarked) [Compound Z71311814], which “First screening IR (inhibition rate)” value is on record?
Answer: 1%

Question: How did the “First screening IR (inhibition rate)” value turn out when `CN(C1CCS(=O)(=O)C1)S(=O)(=O)c1ccc(Cl)c(Cl)c1` (centres unmarked) [Compound Z71311982] was run?
Answer: -2%

Question: How did the “First screening IR (inhibition rate)” value turn out when `O=C(NCCOc1ccc(Cl)cc1)c1ccc2nc[nH]c2c1` [Compound Z73381327] was run?
Answer: 12%

Question: Which “First screening IR (inhibition rate)” value does the source give for `CC(C)n1ncc2c(C(=O)N3CCN(CC(=O)N4CCOCC4)CC3)cc(-c3ccccc3)nc21` [Compound Z73457343] here?
Answer: 7%

Question: With `CC(C)(C)C(=O)NCc1ccc(C(=O)COC(=O)c2cc3c(s2)CCC3)s1` [Compound Z73973253] as the molecule, how does the “First screening IR (inhibition rate)” value read?
Answer: 9%

Same assay, conditions: second screening, dissolved from fresh powder; n = 4; 10 μmol L−1 compound

Question: Which “Second screening IR (inhibition rate)” value does the source give for `CCOc1ccc(-c2nc3ccccc3c(-c3ccccc3)c2Cl)cc1.Cl` [Compound Z57038735] here?
Answer: 2%

Question: Which “Second screening IR (inhibition rate)” value does the source give for `O=C(C1=C(O)C(=O)N(CCCn2ccnc2)C1c1cccc([N+](=O)[O-])c1)c1ccco1` (centres unmarked) [Compound Z57237939] here?
Answer: -11%
